Data set [1] can be described thus: wn = mass fraction of the nth substance listed. To be noted: 298.15 K, 100 kPa, Liquid, Vibrating tube method.
The nature of data set [2]: refractive index (Na D-line) (dimensionless); wn = mass fraction of the nth substance listed. To be noted: 298.15 K, 100 kPa, Liquid, Standard Abbe refractometry.

Numbers after ± are expanded uncertainties.

What is called mass density is mass per unit of volume. The term refractive index denotes the speed of light in vacuum divided by its phase velocity in the sample. With `O=B[O-].[Li+]` [lithium metaborate] + O, in data set [1] (w1 = 0.0336), the mass density is given as 1035.63 ± 12 kg/m3. The refractive index in data set [2] (w1 = 0.0336) is reported as 1.3448 ± 0.002.

`O=B[O-].[Na+]` [sodium metaborate] + O: the mass density in data set [1] (w1 = 0.2259) amounted to 1280.56 ± 12 kg/m3. In data set [2] (w1 = 0.2259), the refractive index amounted to 1.38898 ± 0.002.

`O=B[O-].[K+]` [potassium metaborate] + O: in data set [1] (w1 = 0.4388), the mass density worked out at 1539.08 ± 12 kg/m3. Also, in data set [2] (w1 = 0.4388), the refractive index is given as 1.42543 ± 0.002.

Values taken from the NIST ThermoML archive (doi:10.1021/acs.jced.9b00218).
